Data reported in patent US12558435B2, “Transient inhibition of p53 in gene therapy” (Ospedale San Raffaele S.R.L., priority 2018, dated 2026).

Key:
[1] = system: human CD34+ cells; assay type: cell-based; conditions: for HDR efficiency (GFP+ cells): molecules added one day before viral transduction, FIG. 2B; for editing efficiency by molecular analyses on genomic DNA: human HSPC, FIG. 8B
Procedure: CD34+ cells were either freshly purified from human CB after obtaining informed consent and upon approval by the Ospedale San Raffaele Bioethical Committee, or purchased frozen from Lonza. CD34+ cells were edited according to a previously optimized protocol (Schiroli et al. 2017 supra).
Briefly, 5×10^5 CD34+ cells/ml were stimulated in serum-free StemSpan medium (StemCell Technologies) supplemented with penicillin, streptomycin, glutamine, 1 μM SR-1 (Biovision), […] (STEMCell Technologies), 10 μM PGE2 added only at the beginning of the culture (Cayman), and human early-acting cytokines (SCF 100 ng/ml, Flt3-L 100 ng/ml, TPO 20 ng/ml, and IL-6 20 ng/ml; all purchased from Peprotech). After 3 days of prestimulation, cells were washed with PBS and electroporated using P3 Primary Cell 4D-Nucleofector X Kit and program EO-100 (Lonza). Cells were electroporated with 2.5-1.25 μM of RNPs.
Transduction with AAV6 was performed at a dose of 1-2×10^4 vg/cell 15′ after electroporation. GSE56 mRNA was utilized were indicated at a dose of 150 μg/ml. Gene editing efficiency was measured from cultured cells in vitro 3 days after electroporation by flow cytometry measuring the percentage of cells expressing the GFP marker or by digital droplet PCR analysis designing primers and probe on the junction between the vector sequence and the targeted locus and on control sequences utilized as normalizer as previously described (Schiroli et al. 2017 supra).
For HDR ddPCR, primers and probes were designed on the junction between the vector sequence and the targeted locus and on control sequences used for normalization (human TTC5 genes). Thermal conditions for annealing and extension were adjusted for each specific application as follows: AAVS1/Intron 1 IL2RG HDR 3′ integration junction ddPCR: 55° C. for 30 sec, 72° C. for 2 min. Primers and probes for PCR and ddPCR amplifications are shown below.
CD34^+ cells were purchased frozen from Lonza. CD34^+ cells were edited according to a previously optimised protocol (Schiroli, G. et al (2017) Sci Transl Med 9). Briefly, 1-5×10^5 CD34^+ cells/ml were stimulated in serum-free StemSpan medium (StemCell Technologies) supplemented with penicillin, streptomycin, glutamine, 1 μM of the arylhydrocarbon receptor antagonist SR-1 (Biovision), […] of the pyrimidoindole-derivative UM171 (STEMCell Technologies), 10 μM of the 15-hydroxy PGDH competitive inhibitor dmPGE-2 added only at the beginning of the culture (Cayman), and human early-acting cytokines (SCF 100 ng/ml, Flt3-L 100 ng/ml, TPO 20 ng/ml, and IL-6 20 ng/ml; all purchased from Peprotech). After 3 days of pre-stimulation, cells were washed with PBS and electroporated using P3 Primary Cell 4D-Nucleofector X Kit and program EO-100 (Lonza). Cells were electroporated with 1-1.2 μM of RNPs. Where specified, electroporation mixture was supplemented with Ad5-E4orf1, Ad5-E4orf6/7 and GSE56/Ad5-E4orf6/7 mRNAs, which were respectively utilized at doses of 120, 80 and 200 μg/ml, or Ad5-E1B55K and Ad5-E4orf6 mRNAs were used at 120 and 80 μg/ml. All other adenoviral protein variants were used at standard dose 120 μg/ml. Transduction with AAV-6 was performed 15 min post-electroporation at dose of 1-5×10^4 vg/cell. Where specified, CD34+ cells were stimulated for shorter time in culture (0, 24 or 48 hours) and edited as described above. Gene editing efficiency was measured from cultured cells in vitro at 4 days post-editing by flow cytometry measuring the percentage of cells expressing the GFP reporter gene or by digital droplet PCR analysis designing primers and probe on the junction between the vector sequence and the targeted locus and on control sequence utilised as normaliser as previously described (Schiroli, G. et al (2017) Sci Transl Med 9) and Schiroli et al., Cell Stem Cell 2019. […]

[2] = target: ATR (Homo sapiens, UniProt Q13535); conditions: cited from earlier work
Sequence of ATR (Homo sapiens, UniProt Q13535) (Q13535 whole entry): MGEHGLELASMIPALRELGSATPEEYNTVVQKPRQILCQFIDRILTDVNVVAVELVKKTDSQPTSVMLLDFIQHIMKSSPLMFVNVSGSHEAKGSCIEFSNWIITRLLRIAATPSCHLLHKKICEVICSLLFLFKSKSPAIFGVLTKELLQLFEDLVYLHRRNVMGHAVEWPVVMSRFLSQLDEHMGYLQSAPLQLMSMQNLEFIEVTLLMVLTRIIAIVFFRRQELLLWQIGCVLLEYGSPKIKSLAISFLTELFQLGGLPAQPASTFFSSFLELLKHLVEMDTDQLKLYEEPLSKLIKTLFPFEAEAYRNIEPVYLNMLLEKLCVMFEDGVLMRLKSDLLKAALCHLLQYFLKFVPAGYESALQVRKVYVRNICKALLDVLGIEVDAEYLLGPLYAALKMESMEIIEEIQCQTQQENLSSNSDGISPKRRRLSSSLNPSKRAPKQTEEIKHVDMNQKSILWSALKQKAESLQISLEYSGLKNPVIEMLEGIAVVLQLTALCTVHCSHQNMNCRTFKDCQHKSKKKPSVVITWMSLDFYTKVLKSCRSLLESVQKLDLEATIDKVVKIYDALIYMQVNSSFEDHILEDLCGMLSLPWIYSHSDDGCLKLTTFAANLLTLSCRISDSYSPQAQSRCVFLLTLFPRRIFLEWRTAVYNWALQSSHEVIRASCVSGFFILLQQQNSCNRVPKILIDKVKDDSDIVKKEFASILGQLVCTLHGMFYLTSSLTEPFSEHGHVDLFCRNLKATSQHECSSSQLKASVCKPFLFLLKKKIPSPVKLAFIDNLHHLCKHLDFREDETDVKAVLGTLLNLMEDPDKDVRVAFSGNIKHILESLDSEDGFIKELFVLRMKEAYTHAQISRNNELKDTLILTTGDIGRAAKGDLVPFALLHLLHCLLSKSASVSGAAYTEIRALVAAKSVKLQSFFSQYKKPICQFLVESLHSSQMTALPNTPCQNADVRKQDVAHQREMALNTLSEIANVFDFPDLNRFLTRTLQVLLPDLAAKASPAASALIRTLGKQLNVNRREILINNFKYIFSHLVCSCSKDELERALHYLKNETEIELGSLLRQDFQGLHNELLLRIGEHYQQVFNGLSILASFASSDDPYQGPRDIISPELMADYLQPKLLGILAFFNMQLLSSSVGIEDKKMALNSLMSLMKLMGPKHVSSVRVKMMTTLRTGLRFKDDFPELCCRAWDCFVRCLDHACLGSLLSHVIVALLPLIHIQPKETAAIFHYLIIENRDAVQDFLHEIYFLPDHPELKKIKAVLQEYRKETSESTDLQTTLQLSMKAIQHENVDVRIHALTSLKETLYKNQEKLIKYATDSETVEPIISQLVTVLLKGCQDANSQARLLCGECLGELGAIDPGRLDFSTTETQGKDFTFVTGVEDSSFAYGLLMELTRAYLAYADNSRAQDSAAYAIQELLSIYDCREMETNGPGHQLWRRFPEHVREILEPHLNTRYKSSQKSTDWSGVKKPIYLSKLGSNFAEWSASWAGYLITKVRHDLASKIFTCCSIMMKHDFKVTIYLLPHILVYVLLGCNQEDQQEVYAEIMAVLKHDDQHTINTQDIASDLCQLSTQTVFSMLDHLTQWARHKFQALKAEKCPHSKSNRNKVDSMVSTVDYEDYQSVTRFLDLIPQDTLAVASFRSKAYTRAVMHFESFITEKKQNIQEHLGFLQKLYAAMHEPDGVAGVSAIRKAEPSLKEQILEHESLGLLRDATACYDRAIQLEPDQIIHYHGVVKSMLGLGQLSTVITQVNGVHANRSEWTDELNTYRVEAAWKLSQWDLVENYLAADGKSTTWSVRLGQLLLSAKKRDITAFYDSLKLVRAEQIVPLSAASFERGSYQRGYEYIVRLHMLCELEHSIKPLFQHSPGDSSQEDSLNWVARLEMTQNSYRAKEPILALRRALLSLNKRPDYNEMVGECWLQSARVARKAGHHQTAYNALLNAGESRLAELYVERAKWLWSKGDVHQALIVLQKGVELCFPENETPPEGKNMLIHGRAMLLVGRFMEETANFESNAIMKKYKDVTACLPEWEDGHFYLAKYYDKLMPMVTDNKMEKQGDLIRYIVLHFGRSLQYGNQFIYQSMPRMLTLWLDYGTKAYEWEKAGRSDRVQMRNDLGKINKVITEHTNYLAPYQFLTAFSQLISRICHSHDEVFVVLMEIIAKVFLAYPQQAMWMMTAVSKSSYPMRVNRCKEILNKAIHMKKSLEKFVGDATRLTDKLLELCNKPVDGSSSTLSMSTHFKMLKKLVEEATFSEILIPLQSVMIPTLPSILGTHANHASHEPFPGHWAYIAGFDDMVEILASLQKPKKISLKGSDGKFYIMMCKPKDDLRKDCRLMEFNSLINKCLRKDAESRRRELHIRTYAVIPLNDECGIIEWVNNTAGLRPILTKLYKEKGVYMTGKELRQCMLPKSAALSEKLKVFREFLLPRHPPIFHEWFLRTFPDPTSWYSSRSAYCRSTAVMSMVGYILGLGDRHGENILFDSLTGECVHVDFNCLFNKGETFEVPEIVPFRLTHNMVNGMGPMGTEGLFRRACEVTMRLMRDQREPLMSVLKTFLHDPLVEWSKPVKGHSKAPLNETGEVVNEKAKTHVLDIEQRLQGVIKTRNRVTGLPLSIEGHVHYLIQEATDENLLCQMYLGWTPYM
Sequence of ATR (Homo sapiens, UniProt Q13535) (Q8WXE1 whole entry partner): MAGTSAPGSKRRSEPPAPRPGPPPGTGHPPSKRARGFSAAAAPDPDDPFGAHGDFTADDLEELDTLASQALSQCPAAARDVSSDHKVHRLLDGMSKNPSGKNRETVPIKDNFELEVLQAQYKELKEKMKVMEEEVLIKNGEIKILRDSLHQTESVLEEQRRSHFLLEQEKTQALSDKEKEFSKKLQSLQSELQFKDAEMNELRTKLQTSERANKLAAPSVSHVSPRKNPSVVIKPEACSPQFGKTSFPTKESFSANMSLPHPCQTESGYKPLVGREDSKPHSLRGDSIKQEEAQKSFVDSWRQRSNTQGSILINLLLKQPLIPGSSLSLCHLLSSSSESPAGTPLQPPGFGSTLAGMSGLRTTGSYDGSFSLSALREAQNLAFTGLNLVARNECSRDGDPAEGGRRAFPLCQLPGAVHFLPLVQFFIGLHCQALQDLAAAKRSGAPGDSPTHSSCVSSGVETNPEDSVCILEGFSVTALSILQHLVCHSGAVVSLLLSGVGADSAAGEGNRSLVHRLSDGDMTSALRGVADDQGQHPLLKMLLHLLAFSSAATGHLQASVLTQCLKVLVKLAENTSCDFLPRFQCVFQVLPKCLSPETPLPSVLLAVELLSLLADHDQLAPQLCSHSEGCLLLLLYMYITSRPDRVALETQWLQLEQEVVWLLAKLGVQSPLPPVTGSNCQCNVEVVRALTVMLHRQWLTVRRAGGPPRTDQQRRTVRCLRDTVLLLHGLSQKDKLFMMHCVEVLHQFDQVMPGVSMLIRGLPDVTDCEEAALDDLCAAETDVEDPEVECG

[3] = DMSO and ethanol; cited from earlier work
[4] = target: T1, ATR (Mus musculus, UniProt Q9JKK8); conditions: in 3T3TopBP1-ER cells; cited from earlier work
T1 construct: endogenous in cells; host or cells: 3T3TopBP1-ER cells

[5] = system: human CD34+ cells; experiment: Cell growth curve of edited CD34+ cells; assay type: cell-based
[6] = target: ATM kinase (Homo sapiens, UniProt Q13315); conditions: cited from earlier work
[7] = system: human CD34+ cells; experiment: NHEJ by mismatch-sensitive endonuclease (T7 Endonuclease I) assay in edited CD34+ cells; assay type: cell-based; conditions: bulk cells, 3 days after gene editing; FIG. 2C
Procedure: The percentage of insertions and deletion (indels) introduced by the Non Homologous End Joining (NHEJ) repair pathway on the nucleases target site was measured by a mismatch-sensitive endonuclease assay (PCR-based amplification of the targeted locus followed by digestion with T7 Endonuclease I; digested DNA fragments were resolved and quantified by capillary electrophoresis on LabChip GX Touch HT, Perkin Elmer) The levels of NHEJ-induced mutations were used as surrogate readout for scoring nucleases activity.
For molecular analyses, genomic DNA was isolated with DNeasy Blood & Tissue Kit or QIAamp DNA Micro Kit (QIAGEN) according to the number of cells available. Nuclease activity (IL2RG intron 1, AAVS1) was measured by mismatch-sensitive endonuclease assay by PCR-based amplification of the targeted locus followed by digestion with T7 Endonuclease I (NEB) according to the manufacturer's instructions. Digested DNA fragments were resolved and quantified by capillary electrophoresis on LabChip GX Touch HT (Perkin Elmer) according to the manufacturer's instructions.
For molecular analyses, genomic DNA was isolated with DNeasy Blood & Tissue Kit or QIAamp DNA Micro Kit (QIAGEN) according to the number of cells available. […] Digested DNA fragments were resolved and quantified by capillary electrophoresis on LabChip GX Touch HT (Perkin Elmer) according to the manufacturer's instructions.

[8] = system: human CD34+ cells; experiment: CFU-C / colony forming cell assay of edited CD34+ cells; assay type: cell-based
[9] = system: human CD34+ cells; experiment: Cell cycle analysis by Hoechst 33342 staining; assay type: cell-based; conditions: bulk treated cells; 12-24 hours; FIG. 14H
Procedure: Cell cycle was analysed by flow cytometry (CytoFLEX LX; Beckman Coulter) at 12-24 hours post-editing by collecting 0.5-1×10^5 total HSPCs in culture. Cells were washed with PBS+2% FBS and stained by using 10 μg/ml Hoechst 33342 (Sigma-Aldrich) in PBS+2% FBS for 0.5-1 hour in final volume equal to 200 μl.

[10] = system: human CD34+ cells transplanted into NSG mice; experiment: Xenotransplantation of edited human CD34+ cells in NSG mice; assay type: in vivo; conditions: AAVS1; T0eq=3×10^5/mouse; FIG. 17B
Procedure: For transplantation, 3×10^5 CD34+ cells treated for editing at day 5 of culture were injected intravenously into NSG mice after sub-lethal irradiation (150-180 cGy). Sample size was determined by the total number of available treated cells. Mice were attributed to each experimental group randomly. Human CD45+ cell engraftment and the presence of gene-edited cells were monitored by serial collection of blood from the mouse tail and, at the end of the experiment (>20 weeks after transplantation), BM and spleen were harvested and analyzed.
NOD-SCID-IL2Rg^−/− (NSG) mice were purchased from The Jackson Laboratory and were maintained in specific-pathogen-free (SPF) conditions. The procedures involving animals were designed and performed with the approval of the Animal Care and Use Committee of the San Raffaele Hospital (IACUC #749) and communicated to the Ministry of Health and local authorities according to Italian law. For transplantation, 1.5-3×10^5 (for primary) or 2×10^6 (for secondary) CD34^+ treated cells at 24 hours post-editing protocol were injected intravenously into NSG mice after sub-lethal irradiation (180 cGy). Sample size was determined by the total number of available treated cells. Mice were attributed to each experimental group randomly. Human CD45^+ cell engraftment and the percentage of edited GFP^+ cells were monitored by serial collection of blood from the mouse tail over the weeks post-transplantation and at the end of the experiment (18-20 weeks post-transplantation) both spleen and bone-marrow were harvested and analysed.

N=c1sc2c(n1CC(=O)c1ccc([N+](=O)[O-])cc1)CCCC2 [pifithrin-α p-nitro, reference compound]
HDR efficiency (GFP+ cells) ([1]; 3 days after gene editing): increase in HDR efficiency

COc1cc2ncnc(-n3nc(-c4ccccn4)nc3N)c2cc1OC [CP-466722]
effect on ATR [2]: does not affect ATR

O=c1cc(-c2cccc3c2Sc2ccccc2S3)oc(N2CCOCC2)c1 [KU-55933]
solubility [3]: soluble in DMSO and ethanol

Cn1c(=O)n(-c2ccc(C(C)(C)C#N)cc2)c2c3cc(-c4cnc5ccccc5c4)ccc3ncc21 [BEZ235]
IC50 [4]: ~0.021 µM

E1B55K and E4orf6: combination of adenoviral proteins E1B55K (SEQ ID No. 15) and E4orf6 (SEQ ID No. 13), delivered as mRNAs
growth curve of treated cells ([5]; FIG. 8D): lower compared to the standard | GFP expression from the AAV6 donor ([1]; FIG. 15A): increased significantly the GFP expression | HDR-mediated integrations at the targeted AAVS1 locus compared to standard ([1]; FIG. 15B): reducing HDR-mediated integrations | editing efficiency by molecular analyses on genomic DNA [1]: not effective in increasing the editing efficiency | transient increase in the fraction of GFP+ cells ([1]; mainly most primitive HSPC compartment, AAVS1, FIG. 8A): up to 1.45 fold

O=C(NC(NC(=S)Nc1ccc(F)c([N+](=O)[O-])c1)C(Cl)(Cl)Cl)C(c1ccccc1)c1ccccc1 (stereo not shown) [CGK 733]
IC50 [2]: ~0.2 µM | IC50 [6]: ~0.2 µM

Cc1ccc(-c2cn3c4c(sc3n2)CCCC4)cc1 [pifithrin-α cyclic, reference compound]
increase in DNA repair by NHEJ [7]: two-fold | cellular toxicity [1]: lowest cellular toxicity | increase in gene editing in the most primitive CD34+ CD133+ CD90+ cell compartment ([1]; 3 days after gene editing, FIG. 2C): two-fold | HDR efficiency (GFP+ cells) ([1]; 3 days after gene editing): increase in HDR efficiency

Cc1ccc(C(=O)Cn2c3c(sc2=N)CCCC3)cc1 [pifithrin-α, reference compound]
HDR efficiency (GFP+ cells) ([1]; 3 days after gene editing): increase in HDR efficiency

B1: E4orf1: adenoviral protein from adenovirus serotype 5 E4 gene (SEQ ID No. 1), delivered as mRNA (protein)
chain: MAAAVEALYVVLEREGAILPRQEGFSGVYVFFSPINFVIPPMGAVMLSLRLRVCIPPGYFGRFLALTDVNQPDVFTESYIMTPDMTEELSVVLFNHGDQFFYGHAGMAVVRLMLIRVVFPVVRQASNV
modifications: delivered as mRNA; example amino acid sequence of Ad5-E4orf1
growth curve of treated cells compared to standard and E4orf6/7 alone ([5]; FIG. 7D): 4 fold | cell growth compared to standard RNP+AAV6 ([5]; days post-editing, FIG. 14B): about 2 fold | increase in number of myeloid and erythroid colony forming units (CFU) compared to standard ([8]; FIG. 7C): 3 fold | erythroid and myeloid clonogenic output compared to standard protocol ([8]; FIG. 14G): improved | number of colonies ([8]; among E4orf1 serotype variants, FIG. 21D): highest number of colonies | targeting efficiency versus mRNA dose ([1]; AAVS1, different mRNA doses, FIG. 6D): dose dependent increase in the targeting efficiency | increase of GFP expression compared to standard RNP+AAV6 ([1]; AAVS1, most primitive compartment (CD34+133+90+ / CD90+), 96 hours, FIG. 14C): up to 1.3 fold | mean increase in the percentage of targeted primitive HSPC ([1]; best performing mRNA dose, AAVS1, FIG. 6D): 1.5 fold | editing efficiency by molecular analyses on genomic DNA [1]: reproducibly able to boost editing | mean increase in the fraction of GFP+ cells compared to the standard ([1]; side-by-side, AAVS1, 4 days, FIG. 7A): 1.2 fold | cell cycle states (G1 to S/G2/M) [9]: lower and not significant | human CD45+ cell engraftment in bloodstream, between groups [10]: did not show any statistical significance
